Test results taken from patent US20230391745A1, “SMALL MOLECULE DEGRADERS OF THE BROMODOMAIN AND PHD FINGER TRANSCRIPTION FACTOR” (Regents of the University of Minnesota, priority 2022, published 2023).
Where two headings read alike, the source gives them in different places.

How the values were obtained:
[1] = biological target: T1, BRD9 bromodomain (Homo sapiens, UniProt Q9H8M2); assay: AlphaScreen assay with BRD9 bromodomain and biotinylated histone H4 KAc5,8,12,16 peptide; assay type: binding
T1 construct: His; purchased Reaction Biology RD-11-214
T1 sequence (Q9H8M2 136-240 limits assumed): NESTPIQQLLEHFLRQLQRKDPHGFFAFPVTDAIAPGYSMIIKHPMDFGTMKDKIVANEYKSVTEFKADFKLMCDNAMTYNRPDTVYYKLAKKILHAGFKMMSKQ

[2] = biological target: T2, CECR2 bromodomain (Homo sapiens, UniProt Q9BXF3); assay: AlphaScreen assay with CECR2 bromodomain and biotinylated histone H4 KAc5,8,12,16 peptide; assay type: binding
T2 construct: His; purchased Reaction Biology RD-11-210

[3] = biological target: T3, BPTF bromodomain (Homo sapiens, UniProt Q12830); assay: AlphaScreen assay with BPTF bromodomain and biotinylated histone H4 KAc5,8,12,16 peptide; assay type: binding; settings: average of two technical replicates with N = 3 unless otherwise indicated, read-out: BPTF BD IC50
T3 construct: His9-tagged BPTF bromodomain was expressed and purified as described previously; His9; made in house
Description: General procedure for AlphaScreen assay. His9-tagged BPTF bromodomain was expressed and purified as described previously. […] The AlphaScreen assay procedures were adapted from the manufacturers protocol (PerkinElmer, USA). […] The biotinylated Histone H4 KAc5,8,12,16 peptide was purchased from EpiCypher (Cat. #12-0034), with the sequence:
Ac-SGRGK(Ac)GGK(Ac)GLGK(Ac)GGAK(Ac)RHRKVLR-Peg(Biot).
All reagents were diluted in the assay buffer (50 mM HEPES-Na^+ (ChemImpex), 100 mM NaCl (SigmaAldrich), 0.05% CHAPS (RPI), 0.1% BSA (SigmaAldrich), pH 7.4).
3-fold serial dilutions were prepared with varying concentrations of the compounds and a fixed protein concentration, keeping the final DMSO concentration at 0.25%. […] 5 μL of the biotinylated peptide solution was then added to the wells. 10 μL of pre-mixed nickel chelate acceptor beads and streptavidin donor beads were added to each well under low light conditions (<100 lux), to a final concentration of 20 μg/mL. The plate was sealed and incubated for 30 minutes in the dark. It was then read in AlphaScreen mode (excitation time=100 ms, integration time=300 ms, output: counts/s) using a Tecan Spark plate reader. Each compound was run in two technical replicates and the data was normalized against 0 μM inhibitor signal to obtain the % normalized AlphaScreen signal. IC50 values were calculated in GraphPad Prism 9 using a sigmoidal 4-parameter logistic (4PL) curve fit.
To validate our chosen exit vectors, an AlphaScreen assay was used to measure binding affinity of our degraders with the BPTF bromodomain.

[4] = biological target: T4, GST-CECR2 and His-tagged CRBN-DDB1 (Homo sapiens, UniProt Q96SW2+Q9BXF3); assay: In vitro AlphaScreen ternary complex assay, CECR2; assay type: binding; settings: GST-CECR2, His-CRBN-DDB1, varying degrader concentrations
T4 construct: GST-tagged bromodomains (BPTF, BRD9, CECR2 and PCAF) and His-tagged CRBN; purchased Reactive Biology Corp RD-11-194
Description: (§1) General procedure for in vitro ternary complex assay. His-tagged CRBN-DDB1 protein was prepared following the procedure reported by Matyskiela et al. GST-BPTF was purchased from BPS Biosciences (cat #31134), while GST-BRD9, GST-CECR2, and GST-PCAF were purchased from Reactive Biology Corp (cat #RD-11-187, cat #RD-11-194, and cat #RD-11-259 respectively). All reagents were diluted in assay buffer comprising 25 mM HEPES, pH 7.4, 100 mM NaCl, 0.1% BSA, and 0.05% tween20. An ECHO 650 (Labcyte Inc.) acoustic dispenser was used to generate a 10-point dilution curve from DMSO stocks of the degraders directly into a 384-well OptiPlate (PerkinElmer, Cat. #6007290) giving a final DMSO concentration of 0.3%. AlphaScreen glutathione coated donor and nickel chelate acceptor beads were purchased from PerkinElmer (Cat. #6765300 and 6760141 respectively).
(§2) Briefly, to a 384-well OptiPlate containing 5× degrader in triplicate was added 5 μL of a 5× solution of His-CRBN-DDB1 and GST-tagged bromodomain and then incubated at rt for 1 h. After incubation, 10 μL nickel chelate acceptor (20 μL/mL final concentration) and 10 μL glutathione donor beads (20 μL/mL final concentration) were added. The plate was sealed and mixed on a MixMate (eppendorf) for 1 h at rt and then luminescence detection was collected on an Envision plate reader (PerkinElmer).
(§3) In vitro ternary complex formation via AlphaScreen. The stability of the ternary complex is critical for degradation by heterobifunctional molecules. A ternary complex formation in vitro using an AlphaScreen-based assay (FIG. 3A) was therefore studied. In this experiment, anti-GST donor beads and nickel acceptor beads were paired with GST-tagged bromodomains (BPTF, BRD9, CECR2 and PCAF) and His-tagged CRBN. The AlphaScreen signal was measured at varying degrader concentrations and the amplitude of the maximum point on the curve was used as an indicator of ternary complex stability.

[5] = biological target: T5, GST-PCAF and His-tagged CRBN-DDB1 (Homo sapiens, UniProt Q92831+Q96SW2); assay: In vitro AlphaScreen ternary complex assay, PCAF; assay type: binding; settings: His-CRBN-DDB1, varying degrader concentrations
T5 construct: GST-tagged bromodomains (BPTF, BRD9, CECR2 and PCAF) and His-tagged CRBN; purchased Reactive Biology Corp RD-11-259
Description: as §1, §2, §3

[6] = biological target: T6, Nluc-BPTF-BD fusion construct (Homo sapiens, UniProt Q12830+Q96SW2); assay: In-cell NanoBRET CRBN ternary complex assay with Nluc-BPTF-BD; assay type: cell-based; settings: for BRET ratio, fold increase over DMSO (in-cell ternary complex formation): 1 μM degrader, C-terminal Nluc-BPTF-BD fusion, HEK293T cells; for Ternary complex formation with C-terminal Nluc/BPTF-BD fusion construct / Ternary complex formation with N-terminal Nluc/BPTF-BD fusion construct: 1 μM for 2 h, HEK293T cells pre-treated with MG-132
T6 construct: form ternary complexes with nanoluciferase-fused BPTF bromodomain and full-length BRD9 constructs; expressed in transfected cells; host or cells: HEK293T
Description: In-cell NanoBRET assay. NanoBRET experiments were carried out using the NanoBRET CRBN Ternary Complex Starter Kit (Cat #ND2720) according to the manufacturer's protocol (Promega NanoBRET™ CRBN Ternary Complex Assay TM615).^38 All assays were run in 384-well format. HEK293T cells were transfected to a 1:100 donor:acceptor (Nluc:Halotag vectors) ratio for both BPTF-BD and BRD9-FL vectors (see supporting information for the design of plasmids). Cells were re-plated, treated with the HaloTag 618 Ligand and treated with compounds as described in the manufacturer's procedure.
Cell culture. HEK293T cells were grown in a humidified 5% CO2 environment at 37° C. Cells were cultured in DMEM media (high-glucose, Gibco Cat. #11965-092) supplemented with 10% fetal-bovine serum (Cellgro Cat. #QB-110-001-101), Penicillin-Streptomycin (50 U/mL penicillin, 50 μg/mL streptomycin, Cellgro Cat. #15140-122). The cells were passaged to a 1:20 dilution by decanting suspended cells and dissociating adherent cells from cell culture flasks in 0.25% trypsin/EDTA (Gibco, Cat. #25200056) after 1 min incubation.
In-cell ternary complex formation and degradation of BPTF-BD via NanoBRET. After establishing in vitro ternary complex formation, a NanoBRET ternary complex assay was optimized to rank-order degraders in cells (FIG. 4A). This assay also serves as an indirect indicator of cellular permeability, which is often a major challenge for heterobifunctional degraders. Both N- and C-terminal fusions of Nanoluciferase (Nluc) and BPTF-BD with 11-amino acid linkers were designed. The vectors were transfected into HEK293T cells and compounds 4 and 5 were dosed at 1 μM for 2 h in cells pre-treated with the proteosome inhibitor MG-132. […] The C-terminal Nluc-BPTF-BD fusion construct was therefore used for subsequent experiments. Degraders were tested for ternary complex formation at 1 μM (FIG. 4B).

[7] = biological target: T7, GST-BRD9 and His-tagged CRBN-DDB1 (Homo sapiens, UniProt Q96SW2+Q9H8M2); assay: In vitro AlphaScreen ternary complex assay, BRD9; assay type: binding; settings: GST-BRD9, His-CRBN-DDB1, varying degrader concentrations
T7 construct: GST-tagged bromodomains (BPTF, BRD9, CECR2 and PCAF) and His-tagged CRBN; purchased Reactive Biology Corp RD-11-187
Description: as §1, with “AlphaScreen glutathione coated donor and nickel chelate acceptor beads were purchased from PerkinElmer (Cat. #6765300 and 6760141 respectively).” left out
as §2, with “After incubation, 10 μL nickel chelate acceptor (20 μL/mL final concentration) and 10 μL glutathione donor beads (20 μL/mL final concentration) were added.” left out
In vitro ternary complex formation via AlphaScreen. […] The AlphaScreen signal was measured at varying degrader concentrations and the amplitude of the maximum point on the curve was used as an indicator of ternary complex stability.

[8] = biological target: T8, Nluc-BRD9-FL fusion construct (Homo sapiens, UniProt Q96SW2+Q9H8M2); assay: In-cell NanoBRET CRBN ternary complex assay with full-length BRD9; settings: HEK293T cells
Description: (§4) In-cell ternary complex formation and degradation of full-length BRD9 via NanoBRET. […] Degradation of the Nluc-BRD9-FL construct was monitored under similar conditions as our BPTF study.

[9] = biological target: T8, Nluc-BRD9-FL fusion construct; assay: Degradation of Nluc-BRD9-FL construct by total donor luminescence; settings: similar conditions as BPTF study (1 μM, 6 h), HEK293T cells
Description: as §4

[10] = AlphaScreen, average of two technical replicates with N = 2 unless otherwise indicated, read-out: BRD9 BD IC50
[11] = AlphaScreen, average of two technical replicates with N = 2 unless otherwise indicated, read-out: CECR2 BD IC50

T2 sequence (Q9BXF3 434-538 limits assumed): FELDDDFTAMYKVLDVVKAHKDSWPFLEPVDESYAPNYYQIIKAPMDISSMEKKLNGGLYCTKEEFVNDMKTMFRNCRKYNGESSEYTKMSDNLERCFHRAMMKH
T4 sequence (Q9BXF3 434-538 limits assumed): as above
T4 sequence (Q96SW2 40-442 limits assumed): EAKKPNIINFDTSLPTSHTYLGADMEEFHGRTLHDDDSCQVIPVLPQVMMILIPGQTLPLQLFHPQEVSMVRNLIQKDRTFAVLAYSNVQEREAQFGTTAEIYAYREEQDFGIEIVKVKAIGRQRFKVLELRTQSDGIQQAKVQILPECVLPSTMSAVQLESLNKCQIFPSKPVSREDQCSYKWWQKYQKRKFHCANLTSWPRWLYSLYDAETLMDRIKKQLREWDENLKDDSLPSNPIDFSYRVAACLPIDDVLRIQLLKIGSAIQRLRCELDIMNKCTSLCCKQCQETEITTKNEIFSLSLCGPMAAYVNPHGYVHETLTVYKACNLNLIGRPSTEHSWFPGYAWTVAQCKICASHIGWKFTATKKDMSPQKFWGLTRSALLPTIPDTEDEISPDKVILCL
T4 sequence (Q16531 whole entry partner): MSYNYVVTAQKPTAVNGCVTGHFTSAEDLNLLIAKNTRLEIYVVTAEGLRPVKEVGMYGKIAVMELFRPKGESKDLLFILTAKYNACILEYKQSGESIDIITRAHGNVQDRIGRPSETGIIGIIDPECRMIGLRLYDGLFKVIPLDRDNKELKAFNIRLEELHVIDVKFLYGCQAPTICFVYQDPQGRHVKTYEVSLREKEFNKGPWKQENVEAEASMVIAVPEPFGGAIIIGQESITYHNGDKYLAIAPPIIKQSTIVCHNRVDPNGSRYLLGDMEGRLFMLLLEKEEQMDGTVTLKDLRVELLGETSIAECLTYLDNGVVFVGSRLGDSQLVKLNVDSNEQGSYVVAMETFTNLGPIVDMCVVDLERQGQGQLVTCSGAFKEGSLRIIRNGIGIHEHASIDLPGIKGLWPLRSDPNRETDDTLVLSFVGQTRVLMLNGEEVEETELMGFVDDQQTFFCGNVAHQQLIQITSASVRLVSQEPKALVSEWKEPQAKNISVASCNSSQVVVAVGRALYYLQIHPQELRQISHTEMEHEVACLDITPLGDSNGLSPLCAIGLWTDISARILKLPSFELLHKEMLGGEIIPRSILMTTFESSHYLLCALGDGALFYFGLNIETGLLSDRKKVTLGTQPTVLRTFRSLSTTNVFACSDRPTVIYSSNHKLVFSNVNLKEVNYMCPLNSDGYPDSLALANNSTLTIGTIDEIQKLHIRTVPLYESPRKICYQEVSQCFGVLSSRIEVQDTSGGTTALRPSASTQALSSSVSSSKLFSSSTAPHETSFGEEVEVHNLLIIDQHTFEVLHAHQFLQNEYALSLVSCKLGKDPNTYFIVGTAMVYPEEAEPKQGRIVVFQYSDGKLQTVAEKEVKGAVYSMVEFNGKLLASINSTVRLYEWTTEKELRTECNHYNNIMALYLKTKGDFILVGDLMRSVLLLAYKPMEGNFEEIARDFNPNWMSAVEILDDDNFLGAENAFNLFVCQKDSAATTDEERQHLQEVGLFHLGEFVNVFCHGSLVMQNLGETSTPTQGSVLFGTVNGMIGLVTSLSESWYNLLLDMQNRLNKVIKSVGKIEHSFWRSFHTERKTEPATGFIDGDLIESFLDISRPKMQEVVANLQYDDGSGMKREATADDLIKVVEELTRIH
T5 sequence (Q92831 723-827 limits assumed): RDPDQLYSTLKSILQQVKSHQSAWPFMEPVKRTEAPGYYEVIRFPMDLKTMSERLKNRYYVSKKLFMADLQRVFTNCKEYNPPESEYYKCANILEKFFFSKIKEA
T5 sequence (Q96SW2 40-442 limits assumed): as the sequence (Q96SW2 40-442 limits assumed) above
T5 sequence (Q16531 whole entry partner): as the sequence (Q16531 whole entry partner) above
T6 sequence (Q16531 whole entry, the tested form may be a part): as the sequence (Q16531 whole entry partner) above
T6 sequence (Q96SW2 whole entry, the tested form may be a part): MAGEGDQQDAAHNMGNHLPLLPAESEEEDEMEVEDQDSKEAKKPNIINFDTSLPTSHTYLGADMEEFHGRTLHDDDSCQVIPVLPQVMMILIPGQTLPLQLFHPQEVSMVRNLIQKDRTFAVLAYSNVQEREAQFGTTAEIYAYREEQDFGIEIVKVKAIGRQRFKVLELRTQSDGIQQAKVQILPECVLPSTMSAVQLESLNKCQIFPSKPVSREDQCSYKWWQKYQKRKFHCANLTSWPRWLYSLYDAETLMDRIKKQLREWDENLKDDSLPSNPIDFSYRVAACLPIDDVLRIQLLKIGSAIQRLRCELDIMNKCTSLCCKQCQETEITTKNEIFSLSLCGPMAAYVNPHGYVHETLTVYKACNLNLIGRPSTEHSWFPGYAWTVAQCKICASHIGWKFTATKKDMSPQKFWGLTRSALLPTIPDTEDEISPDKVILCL
T8 sequence (Q9H8M2 whole entry, the tested form may be a part): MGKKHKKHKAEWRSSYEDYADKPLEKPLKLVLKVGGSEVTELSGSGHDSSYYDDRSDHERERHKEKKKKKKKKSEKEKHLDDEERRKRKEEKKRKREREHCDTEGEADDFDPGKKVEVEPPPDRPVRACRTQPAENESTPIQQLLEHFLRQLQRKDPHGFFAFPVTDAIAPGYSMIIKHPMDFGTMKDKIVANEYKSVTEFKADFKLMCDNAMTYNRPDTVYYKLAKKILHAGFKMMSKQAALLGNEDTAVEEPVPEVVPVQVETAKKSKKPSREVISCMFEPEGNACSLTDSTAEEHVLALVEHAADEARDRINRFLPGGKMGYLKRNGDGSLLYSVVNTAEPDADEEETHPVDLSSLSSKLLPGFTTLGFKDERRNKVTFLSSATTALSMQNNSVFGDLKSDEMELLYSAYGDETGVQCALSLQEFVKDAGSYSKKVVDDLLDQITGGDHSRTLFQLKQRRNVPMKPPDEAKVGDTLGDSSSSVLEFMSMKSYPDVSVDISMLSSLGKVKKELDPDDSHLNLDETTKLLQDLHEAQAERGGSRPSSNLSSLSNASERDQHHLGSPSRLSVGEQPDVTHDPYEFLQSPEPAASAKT
T8 sequence (Q96SW2 whole entry, the tested form may be a part): as the sequence (Q96SW2 whole entry, the tested form may be a part) above
T8 sequence (Q16531 whole entry partner, the tested form may be a part): as the sequence (Q16531 whole entry partner) above
T7 sequence (Q96SW2 40-442 limits assumed, one chain of several): as the sequence (Q96SW2 40-442 limits assumed) above
T7 sequence (Q16531 whole entry partner, one chain of several): as the sequence (Q16531 whole entry partner) above

SMILES	IC50 [3] [nM]	IC50 [1, 10] [nM]	Ternary complex formation with CECR2 (AlphaScreen signal amplitude) [4]	Ternary complex formation with PCAF (AlphaScreen signal amplitude) [5]	BRET ratio, fold increase over DMSO (in-cell ternary complex formation) [6] [fold]	IC50 [2, 11] [nM]	Ternary complex formation with BRD9 (AlphaScreen signal amplitude) [7]	BRET ratio, fold over DMSO control (in-cell ternary complex formation) [8] [fold]	Ternary complex formation with C-terminal Nluc/BPTF-BD fusion construct [6]	Ternary complex formation with N-terminal Nluc/BPTF-BD fusion construct [6]	IC50 [1] [nM]	IC50 [2] [nM]	Degradation of the Nluc-BRD9-FL construct [9]
Cn1ncc(Nc2ccc3c(c2)CCNC3)c(Cl)c1=O [Compound 1]	–	–	–	–	–	–	–	–	–	–	556	1670	–
Cn1ncc(Nc2ccc3c(c2)CN(CCOCCOCCNC(=O)COc2cccc4c2C(=O)N(C2CCC(=O)NC2=O)C4=O)CC3)c(Cl)c1=O (stereo not drawn) [Compound 6, N-(2-(2-(2-(7-((5-chloro-1-methyl-6-oxo-1,6-dihydropyridazin-4-yl)amino)-3,4-dihydroisoquinolin-2(1H)-yl)ethoxy)ethoxy)ethyl)-2-((2-(2,6-dioxopiperidin-3-yl)-1,3-dioxoisoindolin-4-yl)oxy)acetamide]	121 ± 38	18	less stable ternary complexes	less stable ternary complexes	1.6	1460	–	–	–	–	–	–	–
Cn1ncc(Nc2ccc3c(c2)CNCC3)c(Cl)c1=O [Compound 2]	–	300	–	–	–	1300	–	–	–	–	–	–	–
Cn1ncc(Nc2ccc3c(c2)CN(CCCCCCNC(=O)COc2cccc4c2C(=O)N(C2CCC(=O)NC2=O)C4=O)CC3)c(Cl)c1=O (stereo not drawn) [Compound 4, N-(6-(7-((5-chloro-1-methyl-6-oxo-1,6-dihydropyridazin-4-yl)amino)-3,4-dihydroisoquinolin-2(1H)-yl)hexyl)-2-((2-(2,6-dioxopiperidin-3-yl)-1,3-dioxoisoindolin-4-yl)oxy)acetamide]	158 ± 55	98	promiscuous	promiscuous	3.2	485	promiscuous	~2	showed ternary complex formation	did not	–	–	caused degradation of full-length BRD9, comparable to the dBRD9 control
Cn1ncc(Nc2ccc3c(c2)CCN(CCOCCOCCNC(=O)COc2cccc4c2C(=O)N(C2CCC(=O)NC2=O)C4=O)C3)c(Cl)c1=O (stereo not drawn) [Compound 5, N-(2-(2-(2-(6-((5-chloro-1-methyl-6-oxo-1,6-dihydropyridazin-4-yl)amino)-3,4-dihydroisoquinolin-2(1H)-yl)ethoxy)ethoxy)ethyl)-2-((2-(2,6-dioxopiperidin-3-yl)-1,3-dioxoisoindolin-4-yl)oxy)acetamide]	70 ± 23	63	less stable ternary complexes	less stable ternary complexes	2.3	225	–	–	showed ternary complex formation	did not	–	–	caused degradation of full-length BRD9, comparable to the dBRD9 control

Continued by falling IC50 [2, 11], values first:

IC50 [3] [nM]	IC50 [1, 10] [nM]	Ternary complex formation with CECR2 (AlphaScreen signal amplitude) [4]	Ternary complex formation with PCAF (AlphaScreen signal amplitude) [5]	BRET ratio, fold increase over DMSO (in-cell ternary complex formation) [6] [fold]	IC50 [2, 11] [nM]	Ternary complex formation with BRD9 (AlphaScreen signal amplitude) [7]	BRET ratio, fold over DMSO control (in-cell ternary complex formation) [8] [fold]	Ternary complex formation with C-terminal Nluc/BPTF-BD fusion construct [6]	Ternary complex formation with N-terminal Nluc/BPTF-BD fusion construct [6]	SMILES	IC50 [1] [nM]	IC50 [2] [nM]	Degradation of the Nluc-BRD9-FL construct [9]
24 ± 9	21	drop in signal	drop in signal	3.5	53	drop in signal	–	–	–	Cn1ncc(Nc2ccc3c(c2)CCN(CCCCCCNC(=O)COc2cccc4c2C(=O)N(C2CCC(=O)NC2=O)C4=O)C3)c(Cl)c1=O (stereo not drawn) [Compound 3]	–	–	–
430	–	–	–	–	33	–	–	–	–	CN(C)CCCOc1ccc(-c2cc(NCCCn3cccn3)nc(S(C)(=O)=O)n2)cc1 [Compound 7, TP-238, reference compound]	–	–	–
